The subject of one experiment is A2780 cells. Kind of experiment: SRB proliferation assay for non-light-sensitive complexes, A2780. The format is cell-based, human. The note with it: ambient light, 24 h exposure, 72 h recovery. As for the experimental part:
Cytotoxicity of platinum(II) precursors: To investigate the relationship between the Pt^IV diazidodihydroxido complexes and their Pt^II dichlorido analogues trans-[PtCl2(Am1)(Am2)] (where Am=amine), the cytotoxicities of complexes trans-[PtCl2(MA)(Py)] (5) and trans-[PtCl2(MA)(Tz)] (6) towards A2780 and its cisplatin resistant sub-line A2780cis were determined. The toxicity was not photoinduced, as the complexes are not photoactive. Complexes 5 and 6 are highly cytotoxic towards A2780 and A2780cis cells compared to the reported trans-Pt^II compounds.[18]–[22] Complex 5 is about three-times more cytotoxic than complex 6 towards A2780 cells. […]
Cell Culture and Proliferation Assay for Non-light-sensitive Complexes
The A2780 ovarian cell line was obtained from the ECACC (European Collection of Animal Cell Culture, Salisbury, United Kingdom). The cells were maintained in RPMI 1640 media, which was supplemented with 10% foetal calf serum, 1% L-glutamine, and 1% penicillin/streptomycin. All cells were grown at 310 K in an humidified atmosphere containing 5% CO2. Stock solutions of the Pt complexes were freshly prepared in DMSO to assist dissolution and then diluted into saline and medium (maximum final concentration of DMSO 1% and saline 6%). After plating 5000 A2780 cells per well on day 1, Pt complexes were added to the cancer cells on day 3 at concentrations ranging from 0.01 to 100 µM, depending on the preliminary activity data obtained in screening assays. Cells were exposed to the complexes for 24 h, washed with PBS, supplied with fresh medium, and allowed to grow for three doubling times (72 h), and then the protein content (proportional to cell survival) was measured using the sulforhodamine B (SRB) assay.[7] The standard errors are based on two independent experiments of three replicates each.[8]

Another experiment concerns pSP73KB plasmid DNA. Briefly: DNA interstrand cross-linking, denaturing agarose gel. The format is biochemical. To be noted: in the dark. As for the experimental part:
Interstrand cross-links: In this experiment, interstrand cross-linking efficiency of photoactivated 1 or 2, and of 5 or 6 in the dark was investigated using pSP73KB plasmid DNA. The DNA samples were treated with complexes 5 or 6 in the dark or with 1 or 2 under irradiation conditions and then were analysed by agarose gel electrophoresis under denaturing conditions. The interstrand cross-linked DNA appears in the autoradiogram as the top bands (Figure 11), which migrate more slowly than the single-strand DNA (the bottom bands). The frequencies of interstrand cross-links formed by photoactivated 1 or 2, and 5 and 6 (in the dark) were 23(±5), 19(±3), 9(±3) and 16(±2) %, respectively.
Figure 11 Agarose gel electrophoresis for quantification of DNA interstrand cross-linking. The interstrand cross-links (ICLs) by: A) 1 or 2 under irradiation conditions (420 nm light), and B) 5 or 6 in the dark were formed in linear pSP73KB plasmid DNA. A) Lane 1: control, non-modified DNA; lane 2: control, non-modified DNA, but irradiated; lanes 3–7: DNA modified by photoactivated 1 at rb=3.35×10^−5, 6.70×10^−5, 3.35×10^−4, 6.70×10^−4, 3.35×10^−3, respectively; lanes 8–12: DNA modified by photoactivated 2 at rb=3.70×10^−5, 7.40×10^−5, 3.70×10^−4, 7.40×10^−4, 3.70×10^−3, respectively. […]

A further experiment deals with pUC19 plasmid DNA. Kind of experiment: Unwinding of negatively supercoiled DNA, native agarose gel. The format is biochemical. To be noted: in the dark. As for the experimental part:
Unwinding of negatively supercoiled DNA: The unwinding induced in negatively supercoiled pUC19 plasmid DNA by treatment with photoactivated 1 or 2 or with 5 or 6 in the dark was measured. The degree of supercoiling was monitored using electrophoresis in native agarose gels[25] (Figure 12). The DNA unwinding angles for 1, 2, 5, and 6 were 22(±3)°, 20(±3)°, 19(±5)° and 23(±2)°, respectively.
Figure 12 Unwinding of negatively supercoiled […] plasmid DNA by: A) 1, and B) 2 under irradiation conditions (420 nm light); or C) 5, and D) 6 in the dark. The top bands in each panel correspond to the form of nicked plasmid and the bottom bands to the closed, negatively supercoiled plasmid. A) Lane 1: control, non-modified DNA; lane 2: irradiated control DNA; […]: DNA modified by photoactivated 1 at rb=0.016, 0.024, 0.032, 0.041 and 0.049, respectively. B) Lanes 1 and 10: control, non-modified DNA; lane 2: irradiated control DNA; lanes 3–9: DNA modified by photoactivated 2 at rb=0.008, 0.011, 0.020, 0.026, 0.035, 0.042 and 0.050, respectively. C) Lanes 1 and 12: control, non-modified DNA; lanes 2–11: DNA modified by 5 in the dark at rb=0.018, 0.027, 0.036, 0.045, 0.054, 0.063, 0.072, 0.081, 0.090 and 0.1, respectively. […]

The next experiment has as its target T1, HMGB1 protein (Homo sapiens, UniProt P09429).
T1 sequence (P09429 1-215): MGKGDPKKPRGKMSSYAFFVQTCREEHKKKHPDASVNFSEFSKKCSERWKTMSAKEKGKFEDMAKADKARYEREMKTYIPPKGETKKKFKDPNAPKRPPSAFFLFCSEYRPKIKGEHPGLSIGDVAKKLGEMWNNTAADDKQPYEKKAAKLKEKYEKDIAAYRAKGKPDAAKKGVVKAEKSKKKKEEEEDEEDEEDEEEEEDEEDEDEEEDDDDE
Briefly: HMGB1 recognition of platinated 50 bp duplex, gel mobility shift assay. The format is binding. To be noted: 50 bp duplex modified in the dark. An excerpt:
HMGB1 protein recognition: The interactions of high mobility group protein B1 (HMGB1) with a 50 bp duplex DNA adducts formed by 1 or 2 under irradiation conditions and 5 or 6 in the dark were investigated using a gel mobility shift assay.
Figure 13 Recognition by HMGB1 protein of platinated DNA. Affinity of full-length HMGB1 to non-modified (control) DNA (lanes 1 and 2) or DNA modified by cisplatin (7) in the dark (lanes 3 and 4), 5 in the dark (lanes 5 and 6), 6 in the dark (lanes 7 and 8), photoactivated 1 (420 nm light, lanes 9 and 10) or photoactivated 2 (420 nm light, lanes 11 and 12). Lanes 1, 3, 5, 7, 9, 11, no protein added; lanes 2, 4, 6, 8, 10, 12, 700 ng HMGB1 added.

“And” between values parts separate entries of the source, which are not always exact repeats. Equal entries are not always repeated.

For `C[NH2+][Pt@SP3-2]([Cl])([Cl])[n+]1ccsc1` [Complex 6, trans-[PtCl2(MA)(Tz)]], half-maximal inhibition with A2780 cells (IC50) was put at 6.9 ± 2.3 µM. In the experiment with pSP73KB plasmid DNA, the Interstrand cross-link was 16(±2) % and 16±2%. Further, the Unwinding angle with pUC19 plasmid DNA was 23(±2) ° and 23±2 °. For the same compound, at HMGB1 protein, the HMGB1 protein recognition result was “no detectable binding and no”.

Regarding `C[NH2+][Pt@SP3-2]([Cl])([Cl])[n+]1ccccc1` [Complex 5, trans-[PtCl2(MA)(Py)]], the IC50 in the experiment with A2780 cells amounted to 2.4 ± 0.7 µM. Moreover, the Interstrand cross-link with pSP73KB plasmid DNA is 9(±3) % and 9±3%. In addition, the Unwinding angle with pUC19 plasmid DNA was 19(±5) ° and 19±5 °. Also, on HMGB1 protein, the HMGB1 protein recognition result was “no detectable binding and no”.

The values are drawn from PMC4280898, “Diazido Mixed-Amine Platinum(IV) Anticancer Complexes Activatable by Visible-Light Form Novel DNA Adducts” (Chemistry (Weinheim an Der Bergstrasse, Germany), 2013).
